Patent publication US20080269250A1, “Pyrrolidine and Piperidine Acetylene Derivatives for Use as Mglur5 Antagonists” (priority 2005, published 2008)

target: T1, hmGluR5 (Homo sapiens, UniProt P41594); assay: inhibition of quinqualate-induced inositol phosphate turnover in hmGluR5 expressing cells; assay type: cell-based; settings: read-out: IC50 concentration, inhibition of quinqualate-induced inositol phosphate turnover
T1 construct: expressed in transfected cells
Source text: This can be determined in vitro for example at recombinant human metabotropic glutamate receptors, especially PLC-coupled subtypes thereof such as mGluRs, using different procedures like, for example, measurement of the inhibition of the agonist induced elevation of intracellular Ca^2+ concentration in accordance with L. P. Daggett et al., Neuropharm. Vol. 34, pages 871-886 (1995), P. J. Flor et al., J. Neurochem. Vol. 67, pages 58-63 (1996) or by determination to what extent the agonist induced elevation of the inositol phosphate turnover is inhibited as described by T. Knoepfel et al., Eur. J. Pharmacol. Vol. 288, pages 389-392 (1994), L. P. Daggett et al., Neuropharm. Vol. […] and references cited therein. Isolation and expression of human mGluR subtypes are described in U.S. Pat. No. 5,521,297. Selected agents of the invention show IC50 values for the inhibition of the agonist (e.g. glutamate or quisqualate) induced elevation of intracellular Ca2+ concentration or the agonist (e.g. glutamate or quisqualate) induced inositol phosphate turnover, measured in recombinant cells expressing hmGluR5a of about 1 nM to about 50 μM.

T1 sequence (P41594 21-1180 isoform P41594-2 limits assumed): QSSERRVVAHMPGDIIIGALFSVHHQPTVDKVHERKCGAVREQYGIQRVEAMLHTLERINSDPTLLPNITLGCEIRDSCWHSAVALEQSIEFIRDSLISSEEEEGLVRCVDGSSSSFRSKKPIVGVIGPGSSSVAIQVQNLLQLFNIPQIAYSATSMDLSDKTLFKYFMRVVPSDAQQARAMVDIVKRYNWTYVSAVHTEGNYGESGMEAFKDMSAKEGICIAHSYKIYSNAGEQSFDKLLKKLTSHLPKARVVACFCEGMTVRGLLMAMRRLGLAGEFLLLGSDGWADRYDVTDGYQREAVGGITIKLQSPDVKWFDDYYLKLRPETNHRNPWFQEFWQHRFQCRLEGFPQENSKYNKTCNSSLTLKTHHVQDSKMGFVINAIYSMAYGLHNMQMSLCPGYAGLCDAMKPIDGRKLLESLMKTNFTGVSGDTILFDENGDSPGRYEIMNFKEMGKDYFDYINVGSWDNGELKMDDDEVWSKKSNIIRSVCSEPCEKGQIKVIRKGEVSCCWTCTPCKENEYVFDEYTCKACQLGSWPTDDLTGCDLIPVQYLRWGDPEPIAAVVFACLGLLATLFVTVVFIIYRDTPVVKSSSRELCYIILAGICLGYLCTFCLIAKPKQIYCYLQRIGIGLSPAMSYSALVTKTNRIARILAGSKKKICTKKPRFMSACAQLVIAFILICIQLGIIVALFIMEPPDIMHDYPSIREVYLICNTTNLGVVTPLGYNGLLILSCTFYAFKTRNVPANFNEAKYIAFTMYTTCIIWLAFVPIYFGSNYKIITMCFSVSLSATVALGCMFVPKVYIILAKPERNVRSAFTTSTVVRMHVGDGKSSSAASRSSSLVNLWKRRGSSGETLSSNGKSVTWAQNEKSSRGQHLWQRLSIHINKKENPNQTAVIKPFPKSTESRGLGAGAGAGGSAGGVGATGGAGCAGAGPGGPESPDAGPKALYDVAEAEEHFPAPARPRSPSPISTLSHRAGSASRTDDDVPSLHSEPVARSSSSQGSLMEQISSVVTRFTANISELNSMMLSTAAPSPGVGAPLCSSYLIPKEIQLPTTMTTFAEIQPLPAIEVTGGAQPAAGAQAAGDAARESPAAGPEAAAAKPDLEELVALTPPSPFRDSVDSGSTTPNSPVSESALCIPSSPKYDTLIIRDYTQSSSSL

IC50 | Structure (SMILES)
290 nM | O=C(c1cc2ccccc2o1)N1CCC(O)(C#Cc2cccc(Cl)c2)CC1 [Example 1.8, Benzofuran-2-yl-[4-(3-chloro-phenyl-ethynyl)-4-hydroxy-piperidin-1-yl]-methanone]

tested on: mice; assay: stress-induced hyperthermia in mice; assay type: in vivo; settings: 10 mg/kg p.o.; control 0.93±0.1° C.; p<0.01
Experimental: A. Lecci et al., Psychopharmacol 101, 255-261]. At doses of about 0.1 to about 30 mg/kg p.o., selected agents of the invention reverse the stress-induced hyperthermia.

Structure (SMILES) | stress-induced hyperthermia
O=C(c1cc2ccccc2o1)N1CCC(O)(C#Cc2cccc(Cl)c2)CC1 [Example 1.8, Benzofuran-2-yl-[4-(3-chloro-phenyl-ethynyl)-4-hydroxy-piperidin-1-yl]-methanone] | 0.44±0.08 °C

same assay, conditions: 30 mg/kg p.o.; control 0.93±0.1° C.; p<0.05

Structure (SMILES) | stress-induced hyperthermia
O=C(c1cc2ccccc2o1)N1CCC(O)(C#Cc2cccc(Cl)c2)CC1 [Example 1.8, Benzofuran-2-yl-[4-(3-chloro-phenyl-ethynyl)-4-hydroxy-piperidin-1-yl]-methanone] | 0.46±0.14 °C

same assay, conditions: 100 mg/kg p.o.; control 0.93±0.1° C.; p<0.001

Structure (SMILES) | stress-induced hyperthermia
O=C(c1cc2ccccc2o1)N1CCC(O)(C#Cc2cccc(Cl)c2)CC1 [Example 1.8, Benzofuran-2-yl-[4-(3-chloro-phenyl-ethynyl)-4-hydroxy-piperidin-1-yl]-methanone] | 0.24±0.12 °C

tested on: not given; assay: not given; settings: not given

melting point | Structure (SMILES)
153 to 155 °C | O=C(C1Oc2ccccc2O1)N1CCC(O)(C#Cc2cccc(Cl)c2)C1 (stereo not drawn) [Example 3.11, Benzo[1,3]dioxol-2-yl-[3-(3-chloro-phenylethynyl)-3-hydroxy-pyrrolidin-1-yl]-methanone]
128 to 130 °C | Cc1ccccc1N1CCC(O)(C#Cc2cccc(Cl)c2)CC1 [Example 1.137, 4-(3-Chloro-phenylethynyl)-1-o-tolyl-piperidin-4-ol]
98 to 102 °C | Cc1ncccc1N1CCC(O)(C#Cc2cccc(Cl)c2)CC1 [Example 1.164, 4-(3-Chloro-phenylethynyl)-2′-methyl-3,4,5,6-tetrahydro-2H-[1,3′]-bipyridinyl-4-ol]
124 to 134 °C | O=C(c1ccoc1)N1CCC(O)(C#Cc2ccc(Cl)cc2)CC1 [Example 1.34, [4-(4-Chloro-phenylethynyl)-4-hydroxy-piperidin-1-yl]-furan-3-yl-methanone]
154 to 157 °C | OC1(C#Cc2cccc(Cl)c2)CCN(c2nc3ccccc3s2)CC1 [Example 1.144, 1-Benzothiazol-2-yl-4-(3-chloro-phenylethynyl)-piperidin-4-ol]
114 to 119 °C | CC(C)c1ccc(N2CCC(O)(C#Cc3cccc(Cl)c3)CC2)cc1 [Example 1.128, 4-(3-Chloro-phenylethynyl)-1-(4-isopropyl-phenyl)-piperidin-4-ol]
134 to 138 °C | Cc1cccnc1N1CCC(O)(C#Cc2cccc(Cl)c2)CC1 [Example 1.148, 4-(3-Chloro-phenylethynyl)-3′-methyl-3,4,5,6-tetrahydro-2H-[1,2′]bipyridinyl-4-ol]
80 to 94 °C | O=C(c1ccoc1)N1CCC(O)(C#Cc2ccc(F)cc2F)CC1 [Example 1.35, [4-(2,4-Difluoro-phenylethynyl)-4-hydroxy-piperidin-1-yl]-furan-3-yl-methanone]
139 to 142 °C | OC1(C#Cc2cccc(Cl)c2)CCN(c2ccnc(Cl)c2)CC1 [Example 1.151, 2′-Chloro-4-(3-chloro-phenylethynyl)-3,4,5,6-tetrahydro-2H-[1,4′]bipyridinyl-4-ol]
93 to 94 °C | O=C(c1ccoc1)N1CCC(O)(C#Cc2cccc(Cl)c2)CC1 [Example 1, [4-(3-Chloro-phenylethynyl)-4-hydroxy-piperidin-1-yl]-furan-3-yl-methanone]
124 to 128 °C | OC1(C#Cc2cccc(Cl)c2)CCN(c2cccnc2)CC1 [Example 1.138, 4-(3-Chloro-phenylethynyl)-3,4,5,6-tetrahydro-2H-[1,3]bipyridinyl-4-ol]
173 to 177 °C | OC1(C#Cc2cccc(Cl)c2)CCN(c2cncnc2)CC1 [Example 1.162, 4-(3-Chloro-phenylethynyl)-1-pyrimidin-5-yl-piperidin-4-ol]
68 to 70 °C | OC1(C#Cc2cccc(Cl)c2)CCN(c2cccc3nccnc23)CC1 [Example 1.139, 4-(3-Chloro-phenylethynyl)-1-quinoxalin-5-yl-piperidin-4-ol]
83 to 85 °C | COc1cccc(C#CC2(O)CCN(C(=O)c3ccoc3)CC2)c1 [Example 1.36, Furan-3-yl-[4-hydroxy-4-(3-methoxy-phenylethynyl)-piperidin-1-yl]-methanone]
171 to 173 °C | O=C(c1ccncc1)N1CCC(O)(C#Cc2cccc(Cl)c2)CC1 [Example 1.52, [4-(3-Chloro-phenylethynyl)-4-hydroxy-piperidin-1-yl]-pyridin-4-yl-methanone]
132 to 135 °C | O=C(c1ccno1)N1CCC(O)(C#Cc2cccc(Cl)c2)CC1 [Example 1.3, [4-(3-Chloro-phenylethynyl)-4-hydroxy-piperidin-1-yl]-isoxazol-5-yl-methanone]
75 to 80 °C | O=C(c1ncc[nH]1)N1CCC(O)(C#Cc2cccc(Cl)c2)CC1 [Example 1.4, [4-(3-Chloro-phenylethynyl)-4-hydroxy-piperidin-1-yl]-(1H-imidazol-2-yl)-methanone]
67 to 81 °C | O=C(c1ccoc1)N1CCC(O)(C#Cc2cccc(F)c2)CC1 [Example 1.31, [4-(3-Fluoro-phenylethynyl)-4-hydroxy-piperidin-1-yl]-furan-3-yl-methanone]
110 to 114 °C | Cc1ccc(C)c(C#CC2(O)CCN(C(=O)c3ccoc3)CC2)c1 [Example 1.37, [4-(2,5-Dimethyl-phenylethynyl)-4-hydroxy-piperidin-1-yl]-furan-3-yl-methanone]
134 to 136 °C | CN1CCC(C(=O)N2CCC(O)(C#Cc3cccc(Cl)c3)CC2)CC1 [Example 1.2, [4-(3-Chloro-phenylethynyl)-4-hydroxy-piperidin-1-yl]-(1-methyl-piperidin-4-yl)-methanone]
